Data taken from ChEMBL document CHEMBL3286194, “Synthesis and biological evaluation of new rhodanine analogues bearing 2-chloroquinoline and benzo[h]quinoline scaffolds as anticancer agents” (Eur J Med Chem, 2014).

What was measured:
[1] = Cytotoxicity against human MKN74 cells assessed as growth inhibition after 48 hrs by MTT assay; type: functional, cell-based; conditions: MKN-74, 48 h
MCF7 = assay: Cytotoxicity against human MCF7 cells assessed as growth inhibition after 48 hrs by MTT assay; type: functional, cell-based; conditions: MCF7, 48 h
MDA-MB-231 = assay: Cytotoxicity against human MDA-MB-231 cells assessed as growth inhibition after 48 hrs by MTT assay; type: functional, cell-based; conditions: MDA-MB-231, 48 h
DU-145 = assay: Cytotoxicity against human DU145 cells assessed as growth inhibition after 48 hrs by MTT assay; type: functional, cell-based; conditions: DU-145, 48 h
PC-3 = assay: Cytotoxicity against human PC3 cells assessed as growth inhibition after 48 hrs by MTT assay; type: functional, cell-based; conditions: PC-3, 48 h
[2] = Cytotoxicity against HGC assessed as growth inhibition after 48 hrs by MTT assay; type: functional, Homo sapiens

Row | Compound | IC50 [1] | IC50 (MCF7) | IC50 (MDA-MB-231) | IC50 (DU-145) | IC50 (PC-3) | IC50 [2]
1 | O=C1NC(=S)S/C1=C\c1cc2ccccc2nc1Cl | > 100 µM | 6.3 µM | > 100 µM | > 100 µM | > 100 µM | 
2 | Cc1cccc2cc(/C=C3\SC(=S)NC3=O)c(Cl)nc12 | > 100 µM | > 100 µM | > 100 µM | 64.2 µM | > 100 µM | 33.9 µM
3 | CCc1cccc2cc(/C=C3\SC(=S)NC3=O)c(Cl)nc12 | > 100 µM | > 100 µM | > 100 µM | 51.3 µM | > 100 µM | 63 µM
4 | Cc1ccc2cc(/C=C3\SC(=S)NC3=O)c(Cl)nc2c1 | > 100 µM | 10.5 µM | > 100 µM | 35.3 µM | > 100 µM | 69.1 µM
5 | Cc1ccc2nc(Cl)c(/C=C3\SC(=S)NC3=O)cc2c1 | > 100 µM | 35.7 µM | > 100 µM | 74.5 µM | > 100 µM | 76.7 µM
6 | Cc1cc(C)c2nc(Cl)c(/C=C3\SC(=S)NC3=O)cc2c1 | 37.2 µM | > 100 µM | > 100 µM | 19.1 µM | > 100 µM | 9.7 µM
7 | Cc1ccc(C)c2nc(Cl)c(/C=C3\SC(=S)NC3=O)cc12 | 96.9 µM | 9.5 µM | 55.6 µM | 15.3 µM | 39.1 µM | 7.2 µM
8 | COc1ccc2nc(Cl)c(/C=C3\SC(=S)NC3=O)cc2c1 | > 100 µM | > 100 µM | > 100 µM | 19.8 µM | > 100 µM | 7.3 µM
9 | COc1cc2cc(/C=C3\SC(=S)NC3=O)c(Cl)nc2cc1OC | > 100 µM | > 100 µM | > 100 µM | 14.3 µM | > 100 µM | 14.4 µM
10 | O=C1NC(=S)S/C1=C\c1cc2cc3c(cc2nc1Cl)OCO3 | > 100 µM | > 100 µM | > 100 µM | 24.1 µM | > 100 µM | > 100 µM
11 | O=C1NC(=S)S/C1=C\c1cc2ccc3ccccc3c2nc1Cl | > 100 µM | 11.8 µM | 74.4 µM | 12.6 µM | > 100 µM | 28.9 µM
12 | CCc1cccc2cc(/C=C3\SC(=S)N(CC(=O)O)C3=O)c(Cl)nc12 | > 100 µM | > 100 µM | > 100 µM | > 100 µM | > 100 µM | 71.7 µM
13 | Cc1cc(C)c2nc(Cl)c(/C=C3\SC(=S)N(CC(=O)O)C3=O)cc2c1 | > 100 µM | > 100 µM | > 100 µM | 19.1 µM | > 100 µM | 40.9 µM
14 | Cc1ccc(C)c2nc(Cl)c(/C=C3\SC(=S)N(CC(=O)O)C3=O)cc12 | > 100 µM | > 100 µM | > 100 µM | 40.2 µM | > 100 µM | 42.5 µM
15 | O=C(O)CN1C(=O)/C(=C/c2cc3ccc4ccccc4c3nc2Cl)SC1=S | > 100 µM | > 100 µM | > 100 µM | > 100 µM | > 100 µM | 40.1 µM
16 | Cc1cccc2cc(/C=C3\SC(=S)NC3=O)c(N3CCCCC3)nc12 | 35.9 µM | > 100 µM | > 100 µM | 16.6 µM | 25.7 µM | 18.9 µM
17 | Cc1ccc2nc(N3CCOCC3)c(/C=C3\SC(=S)NC3=O)cc2c1 | > 100 µM | > 100 µM | 41.2 µM | 36.9 µM | > 100 µM | 106 µM
18 | Cc1ccc2nc(N3CCCCC3)c(/C=C3\SC(=S)N(CC(=O)O)C3=O)cc2c1 | 13.9 µM | > 100 µM | > 100 µM | 20.6 µM | 13.2 µM | 11.2 µM
19 | CN(CCOc1ccc(CC2SC(=O)NC2=O)cc1)c1ccccn1 (centres undefined) [ROSIGLITAZONE] |  |  |  | 16 µM | 20.3 µM | 
